Results from patent publication US7223769B2, “Pyrimidine compounds and their use as pesticides” (Sumitomo Chemical Company, Limited, priority 2002, dated 2007).

The molecules below were run on Frankliniella occidentalis (Western flower thrips) (assay: Test Example 2: sprayed cucumber leaf, larvae of Frankliniella occidentalis set free, surviving pests counted). Conditions: 500 ppm spray solution, 20 ml/cup, cucumber first true leaf, thirty larvae set free, after seven days.
Type: in vivo
Method: Ten parts of each of the present compounds (2), (4), (6), (7), (8), (11), (12), (14), (16), (17), (19) to (24), (26), (28), (29), (34), (36) to (38), and (40); white carbon containing 50 parts of polyoxyethylene alkyl ether sulfate ammonium salt; and […] of water were mixed and pulverized by the wet grinding method to give a formulation for each compound. The formulation of each present compound was diluted with water so that the active ingredient concentration came to 500 ppm to prepare a spray solution.
A polyethylene cup was seeded with cucumber and a plant was grown until the first true leaf was developed, to which the above spray solution was applied at a ratio of 20 ml/cup. After the chemical solution sprayed to the cucumber were dried, the first true leaf was cut off and placed on a filter paper (70 mm in diameter) impregnated with water in a polyethylene cup (110 mm in diameter). Thirty larvae of Frankliniella occidentalis (Western flower thrips) were set free on the first true leaf, which was covered with a polyethylene cup. After seven days, the number of surviving pests was examined.

| SMILES | number of surviving pests |
| --- | --- |
| CCC#CCOc1cc(OC(C)C(C)(C)F)ncn1 (stereo not drawn) [present compound (17), 4-(2-fluoro-1,2-dimethylpropyloxy)-6-(2-pentynyloxy)pyrimidine] | 0 |
| CC#CCOc1cc(OC(C)CC(C)(C)C)ncn1 (stereo not drawn) [present compound (7), 4-(2-butynyloxy)-6-(1,3,3-trimethylbutyloxy)pyrimidine] | 0 |
| CC#CCOc1cc(OCC(C)(C)F)ncn1 [present compound (28), 4-(2-butynyloxy)-6-(2-fluoro-2-methylpropyloxy)pyrimidine] | 0 |
| CC#CCOc1cc(OC(C)C(C)(C)Cl)ncn1 (stereo not drawn) [present compound (34), 4-(2-butynyloxy)-6-(2-chloro-1,2-dimethylpropyloxy)pyrimidine] | 0 |
| CC#CCOc1cc(OC(C)C(C)CC)ncn1 (stereo not drawn) [present compound (16), 4-(2-butynyloxy)-6-(1,2-dimethylbutyloxy)pyrimidine] | 0 |
| CC#CCOc1cc(OC(C)C2CC2)ncn1 (stereo not drawn) [present compound (2), 4-(2-butynyloxy)-6-(1-cyclopropylethoxy)pyrimidine] | 0 |
| CC#CCOc1cc(OC(C)C(C)C)ncn1 (stereo not drawn) [present compound (12), 4-(2-butynyloxy)-6-(1,2-dimethylpropyloxy)pyrimidine] | 0 |
| CC#CCOc1cc(OC(C)C2(C)CC2)ncn1 (stereo not drawn) [present compound (8), 4-(2-butynyloxy)-6-[1-(1-methylcyclopropyl)ethyloxy]pyrimidine] | 0 |
| CC#CCOc1cc(OC(C)C(Cl)Cl)ncn1 (stereo not drawn) [present compound (29), 4-(2-butynyloxy)-6-(2,2-dichloro-1-methylethyloxy)pyrimidine] | 0 |
| CCC#CCOc1cc(OCC(C)(C)Cl)ncn1 [present compound (40), 4-(2-pentynyloxy)-6-(2-chloro-2-methylpropyloxy)pyrimidine] | 0 |
| CC#CCOc1cc(OCCC(C)(C)C)ncn1 [present compound (11), 4-(2-butynyloxy)-6-(3,3-dimethylbutyloxy)pyrimidine] | 0 |
| CC#CCOc1cc(OC(CC)C(C)(C)C)ncn1 (stereo not drawn) [present compound (4), 4-(2-butynyloxy)-6-(1-ethyl-2,2-dimethylpropyloxy)pyrimidine] | 0 |
| CC#CCOc1cc(OCC(C)(C)C)ncn1 [present compound (6), 4-(2-butynyloxy)-6-(2,2-dimethylpropyloxy)pyrimidine] | 0 |
| CC#CCOc1cc(OC(C)C(C)(C)F)ncn1 (stereo not drawn) [present compound (14), 4-(2-butynyloxy)-6-(2-fluoro-1,2-dimethylpropyloxy)pyrimidine] | 0 |
| CC#CCOc1cc(OC(C)C2CCCC2)ncn1 (stereo not drawn) [present compound (26), 4-(2-butynyloxy)-6-(1-cyclopentylethyloxy)pyrimidine] | 0 |
